Measured values from patent publication US7943629B2, “Sulphimides as protein kinase inhibitors” (Bayer Schering Pharma AG, priority 2006, dated 2011).

Key:
MCF7 breast tumour cells = test: MCF7 proliferation assay; assay type: cell-based, human; settings: for IC50: Homo sapiens, MCF7, 96 h, 4 days incubation, crystal violet staining; for antiproliferative activity, MCF7 (in words): summary of Tab. 2
Protocol: Cultivated human MCF7 breast tumour cells (ATCC HTB-22) were plated out in a density of 5000 cells/measurement point in 200 μl of growth medium (RPMI1640, 10% foetal calf serum, 2 mU/mL insulin, 0.1 nM oestradiol) in a 96-well multititre plate. After 24 hours, the cells from a plate (zero plate) were stained with crystal violet (see below), while the medium in the other plates was replaced by fresh culture medium (200 μl) to which the test substances had been added in various concentrations (0 μM, and in the range 0.1-30 μM; the final concentration of the solvent dimethyl sulphoxide was 0.5%). The cells were incubated in the presence of the test substances for 4 days. The cell proliferation was determined by staining the cells with crystal violet: the cells were fixed by adding 20 μl/measurement point of an 11% strength glutaraldehyde solution at room temperature for 15 min. After the fixed cells had been washed three times with water, the plates were dried at room temperature. The cells were stained by adding 100 μl/measurement point of a 0.1% strength crystal violet solution (pH adjusted to pH 3 by adding acetic acid). After the stained cells had been washed three times with water, the plates were dried at room temperature. The dye was dissolved by adding 100 μl/measurement point of a 10% strength acetic acid solution, and the extinction was determined by photometry at a wavelength of 595 nm. The percentage change in cell growth was calculated by normalizing the measurements to the extinctions of the zero point plate (=0%) and the extinction of the untreated (0 μM) cells (=100%). The IC50 values were determined by means of a 4-parameter fit using the company's own software.

Aurora-C = target: T1, Aurora-C (Homo sapiens, UniProt Q9UQB9); test: Aurora-C kinase assay; assay type: biochemical; settings: for IC50: 3 μM ATP, 22° C., 90 min
T1 construct: made in house; host or cells: transiently transfected HEK293 cells
T1 sequence (Q9UQB9 1-309): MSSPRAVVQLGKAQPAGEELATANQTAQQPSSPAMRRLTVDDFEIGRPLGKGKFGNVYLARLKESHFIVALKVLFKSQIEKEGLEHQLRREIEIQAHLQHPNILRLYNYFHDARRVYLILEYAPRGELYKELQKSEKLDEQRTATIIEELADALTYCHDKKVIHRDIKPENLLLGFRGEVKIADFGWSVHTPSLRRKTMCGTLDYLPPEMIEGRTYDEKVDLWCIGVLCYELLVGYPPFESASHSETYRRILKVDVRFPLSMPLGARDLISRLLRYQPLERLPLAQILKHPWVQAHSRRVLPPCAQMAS
Protocol: Recombinant Aurora-C protein was expressed in transiently transfected HEK293 cells and then purified. The kinase substrate used was the biotinylated peptide having the amino acid sequence biotin-FMRLRRLSTKYRT, which was purchased from Jerini AG in Berlin.
Aurora-C [5 nM in the test mixture, test volume 5 μl] was incubated in the presence of various concentrations of test substances (0 μM and 10 measurement points within the range 0.001-20 μM in duplicate) in assay buffer [25 mM HEPES pH 7.4, 0.5 mM MnCl2, 0.1 mM Na ortho-vanadate, 2.0 mM dithiothreitol, 0.05% bovine serum albumin (BSA), 0.01% Triton X-100, 3 μM adenosine trisphosphate (ATP), 0.67 nCi/μl gamma-^33P-ATP, 2.0 μM substrate peptide biotin-FMRLRRLSTKYRT, 1.0% dimethyl sulphoxide] at 22° C. for 90 min. The reaction was stopped by adding 12.5 μl of an EDTA/detection solution [16 mM EDTA, 40 mM ATP, 0.08% Triton X-100, 4 mg/ml PVT streptavidin SPA beads (from Amersham)]. After incubation for 10 minutes, the SPA beads were pelleted by centrifugation at 1000×G for 10 minutes. Measurement took place in a PerkinElmer Topcount scintillation counter. The measured data were normalized to 0% inhibition (enzyme reaction without inhibitor) and 100% inhibition (enzyme reaction in the presence of 0.1 μM staurosporine (from Sigma)). The IC50 values were determined by means of a 4-parameter fit using the company's own software.

KDR (VEGFR2) = target: T2, KDR (VEGFR2) (Homo sapiens, UniProt P35968); test: KDR kinase assay; assay type: biochemical; settings: 10 μM ATP, 22° C., 45 min, HTRF
T2 construct: made in house; host or cells: E. coli
Protocol: Recombinant KDR protein was expressed in E. coli and then purified. The kinase substrate used was the biotinylated peptide having the amino acid sequence biotin-DFGLARDMYDKEYYSVG, which was purchased from Biosynthan. KDR [test volume 5 μl] was incubated in the presence of various concentrations of test substances (0 μM, and 10 measurement points within the range 0.001-20 μM in duplicate) in assay buffer [50 mM HEPES pH 7.0, 25.0 mM MgCl2, […], 0.1 mM Na ortho-vanadate, 1.0 mM dithiothreitol, 0.001% NP40, 10 μM ATP, 0.03 μM substrate peptide […], 1.0% dimethyl sulphoxide] at 22° C. for 45 min. The reaction was stopped by adding 5 μl of an EDTA/detection solution [50 mM HEPES pH 7.5, 125 mM EDTA, 0.2% BSA, 0.1 μM streptavidin-XLent (from CisBio), 2 nM PT66-Eu (from PerkinElmer)]. The fluorescence emission at 620 nm and 665 nm after excitation with light of the wavelength 350 nm was measured in a Rubystar HTRF instrument from BMG Labsystems.
The measured data (ratio of emission 665 divided by emission 620 multiplied by 10 000) were normalized to 0% inhibition (enzyme reaction without inhibitor) and 100% inhibition (all assay components apart from enzyme). The IC50 values were determined by means of a 4-parameter fit using the company's own software.

CDK2/CycE = target: T3, CDK2/CycE (Homo sapiens, UniProt P24941); test: CDK2/CycE kinase assay; assay type: biochemical; settings: for IC50: 0.5 μM ATP, histone IIIS, 22° C., 10 min; for inhibition of CDK2 kinase (in words): summary of Tab. 1
T3 construct: GST; purchased ProQinase GmbH, Freiburg; host or cells: baculovirus-infected insect cells (Sf9)
Protocol: Recombinant CDK2- and CycE-GST fusion proteins, purified from baculovirus-infected insect cells (Sf9), were purchased from ProQinase GmbH, Freiburg. The histone IIIS used as kinase substrate was purchased from Sigma.
(§1) CDK2/CycE (50 ng/measurement point) was incubated in the presence of various concentrations of test substances (0 μM, and within the range 0.01-100 μM) in assay buffer [50 mM Tris/HCl pH 8.0, 10 mM MgCl2, 0.1 mM Na ortho-vanadate, 1.0 mM dithiothreitol, 0.5 μM ATP, 10 μg/measurement point histone IIIS, 0.2 μCi/measurement point ^33P-gamma-ATP, 0.05% NP40, 1.25% dimethyl sulphoxide] at 22° C. for 10 min. The reaction was stopped by adding EDTA solution (250 mM, pH 8.0, 15 μl/measurement point).
15 μl of each reaction mixture were loaded onto P30 filter strips (from Wallac), and non-incorporated ^33P-ATP was removed by washing the filter strips three times in 0.5% strength phosphoric acid for 10 min each time.
(§2) After the filter strips had been dried at 70° C. for 1 hour, the filter strips were covered with scintillator strips (MeltiLex™ A, from Wallac) and baked at 90° C. for 1 hour. The amount of incorporated ^33P (substrate phosphorylation) was determined by scintillation measurement in a gamma radiation counter (Wallac).

CDK1/CycB = target: T4, CDK1/CycB (Homo sapiens, UniProt P06493); test: CDK1/CycB kinase assay; assay type: biochemical; settings: 0.5 μM ATP, histone IIIS, 22° C., 10 min
T4 construct: GST; purchased ProQinase GmbH, Freiburg; host or cells: baculovirus-infected insect cells (Sf9)
Protocol: as §1, with “Recombinant CDK1- and CycB-GST fusion proteins, purified from baculovirus-infected insect cells (Sf9), were purchased from ProQinase GmbH, Freiburg. The histone IIIS used as kinase substrate can be purchased from Sigma. CDK1/CycB (200” for “CDK2/CycE (50”
as §2, with “15 μl of each reaction mixture were loaded onto P30 filter strips (from Wallac), and non-incorporated ^33P-ATP was removed by washing the filter strips three times in 0.5% strength phosphoric acid for 10 min each time. After” for “After”

T2 sequence (P35968 20-1356, species assumed): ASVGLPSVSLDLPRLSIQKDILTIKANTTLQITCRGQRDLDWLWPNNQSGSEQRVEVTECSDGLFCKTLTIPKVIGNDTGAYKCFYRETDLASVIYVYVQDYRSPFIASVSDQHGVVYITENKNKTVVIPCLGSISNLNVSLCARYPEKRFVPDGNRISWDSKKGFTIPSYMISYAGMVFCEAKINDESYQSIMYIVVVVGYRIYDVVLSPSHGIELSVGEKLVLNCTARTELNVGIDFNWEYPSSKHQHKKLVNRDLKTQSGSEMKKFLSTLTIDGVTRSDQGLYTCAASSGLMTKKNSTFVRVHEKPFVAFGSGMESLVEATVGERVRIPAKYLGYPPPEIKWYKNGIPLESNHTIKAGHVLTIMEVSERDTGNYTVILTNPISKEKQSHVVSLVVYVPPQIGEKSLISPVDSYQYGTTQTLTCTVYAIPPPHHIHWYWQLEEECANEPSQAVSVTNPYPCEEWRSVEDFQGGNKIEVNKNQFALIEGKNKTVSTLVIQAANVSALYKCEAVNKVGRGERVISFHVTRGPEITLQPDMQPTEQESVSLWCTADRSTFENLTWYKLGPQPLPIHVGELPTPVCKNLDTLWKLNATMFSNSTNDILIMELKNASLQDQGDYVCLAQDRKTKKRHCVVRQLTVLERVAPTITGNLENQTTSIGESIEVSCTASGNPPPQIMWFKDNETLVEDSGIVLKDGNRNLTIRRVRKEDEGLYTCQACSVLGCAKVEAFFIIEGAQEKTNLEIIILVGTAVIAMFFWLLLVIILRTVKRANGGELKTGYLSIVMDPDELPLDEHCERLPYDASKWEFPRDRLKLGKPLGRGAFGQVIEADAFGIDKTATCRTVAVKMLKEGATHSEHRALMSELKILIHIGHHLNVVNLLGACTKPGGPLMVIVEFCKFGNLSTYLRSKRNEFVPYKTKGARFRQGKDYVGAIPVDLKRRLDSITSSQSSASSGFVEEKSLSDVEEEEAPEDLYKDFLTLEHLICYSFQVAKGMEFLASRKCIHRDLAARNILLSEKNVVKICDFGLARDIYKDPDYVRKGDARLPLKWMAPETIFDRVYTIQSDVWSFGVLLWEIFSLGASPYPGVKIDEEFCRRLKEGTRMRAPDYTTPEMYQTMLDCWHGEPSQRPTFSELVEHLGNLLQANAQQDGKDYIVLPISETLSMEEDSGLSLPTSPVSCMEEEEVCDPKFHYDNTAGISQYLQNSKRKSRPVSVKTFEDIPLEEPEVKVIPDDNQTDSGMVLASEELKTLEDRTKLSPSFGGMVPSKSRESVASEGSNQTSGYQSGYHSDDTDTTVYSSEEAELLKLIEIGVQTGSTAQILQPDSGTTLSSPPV
T4 sequence (P06493 whole entry): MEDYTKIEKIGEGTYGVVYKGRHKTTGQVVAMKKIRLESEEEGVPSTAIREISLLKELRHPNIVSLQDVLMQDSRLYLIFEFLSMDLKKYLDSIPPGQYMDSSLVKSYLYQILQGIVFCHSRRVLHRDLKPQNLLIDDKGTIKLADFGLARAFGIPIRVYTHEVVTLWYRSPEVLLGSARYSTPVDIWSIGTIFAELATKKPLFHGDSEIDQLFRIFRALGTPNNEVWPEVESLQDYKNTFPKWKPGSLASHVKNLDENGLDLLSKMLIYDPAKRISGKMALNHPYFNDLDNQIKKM
T4 sequence (P14635 whole entry partner): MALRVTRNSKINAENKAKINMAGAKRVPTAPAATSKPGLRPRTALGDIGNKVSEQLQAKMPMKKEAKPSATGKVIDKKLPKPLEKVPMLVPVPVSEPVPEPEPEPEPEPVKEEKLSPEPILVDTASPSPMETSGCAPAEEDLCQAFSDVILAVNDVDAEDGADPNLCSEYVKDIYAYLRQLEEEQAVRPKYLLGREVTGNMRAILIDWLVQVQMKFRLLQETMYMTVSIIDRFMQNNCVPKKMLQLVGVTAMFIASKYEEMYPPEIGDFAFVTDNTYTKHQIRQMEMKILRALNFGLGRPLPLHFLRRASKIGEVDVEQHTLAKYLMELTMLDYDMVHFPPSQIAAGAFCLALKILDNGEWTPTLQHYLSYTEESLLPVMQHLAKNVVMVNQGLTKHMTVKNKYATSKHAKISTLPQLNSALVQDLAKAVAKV

SMILES | IC50 (MCF7 breast tumour cells) [nM] | antiproliferative activity, MCF7 (in words) (MCF7 breast tumour cells) | IC50 (Aurora-C) [nM] | IC50 (KDR (VEGFR2)) [nM] | IC50 (CDK2/CycE) [nM] | inhibition of CDK2 kinase (in words) (CDK2/CycE) | IC50 (CDK1/CycB) [nM] | inhibition of Aurora C kinase (in words) (Aurora-C; summary of Tab. 1)
Cc1ccc(S(=O)(=O)N=S(C)c2ccc(Nc3ncc(Br)c(N[C@H](C)C(C)(C)O)n3)cc2)cc1 (mixture of isomers) [Example 9, (RS)—S-{4-[(5-Bromo-4-{[(R)-2-hydroxy-1,2-dimethylpropyl]amino}pyrimidin-2-yl)amino]phenyl}-S-methyl-N-(tolylsulphonyl)sulphimide] | < 100 | excellent antiproliferative activity | 360 | 36 | 28 | shows inhibition | 150 | 
C[C@@H](Nc1nc(Nc2ccc(S(C)=NS(=O)(=O)c3cnccc3Cl)cc2)ncc1Br)C(C)(C)O (mixture of isomers) [Example 11, (RS)—S-{4-[(5-Bromo-4-{[(R)-2-hydroxy-1,2-dimethylpropyl]amino}pyrimidin-2-yl)amino]phenyl}-N-[(4-chloro-3-pyridyl)sulphonyl]-S-methylsulphimide] | < 100 |  | 370 | 44 | 14 | active | 90 | active
COc1ccc(S(=O)(=O)N=S(C)c2ccc(Nc3ncc(Br)c(N[C@H](C)C(C)(C)O)n3)cc2)cc1 (mixture of isomers) [Example 12, (RS)—S-{4-[(5-Bromo-4-{[(R)-2-hydroxy-1,2-dimethylpropyl]amino}pyrimidin-2-yl)amino]phenyl}-N-[(4-methoxyphenyl)sulphonyl]-S-methylsulphimide] | 200 |  | 480 | 38 | 39 |  | 160 | 
C[C@@H](Nc1nc(Nc2ccc(S(C)=NS(=O)(=O)Cc3ccccc3)cc2)ncc1Br)C(C)(C)O (mixture of isomers) [Example 13, (RS)—N—(Benzylsulphonyl)-S-{4-[(5-bromo-4-{[(R)-2-hydroxy-1,2-dimethylpropyl]-amino}pyrimidin-2-yl)amino]phenyl}-S-methylsulphimide] | 110 | excellent antiproliferative activity | 660 | 15 | 28 |  | 140 | 
C[C@@H](Nc1nc(Nc2ccc(S(C)=NS(=O)(=O)C(F)(F)F)cc2)ncc1Br)C(C)(C)O (mixture of isomers) [Example 14, (RS)—S-{4-[(5-Bromo-4-{[(R)-2-hydroxy-1,2-dimethylpropyl]amino}pyrimidin-2-yl)amino]phenyl}-S-methyl-N-[(trifluoromethyl)sulphonyl]sulphimide] | 110 | excellent antiproliferative activity | 990 | 70 | 39 |  | 120 | 
C[C@@H](Nc1nc(Nc2ccc(S(C)=NS(=O)(=O)c3ccccc3)cc2)ncc1Br)C(C)(C)O (mixture of isomers) [Example 15, (RS)—S-{4-[(5-Bromo-4-{[(R)-2-hydroxy-1,2-dimethylpropyl]amino}pyrimidin-2-yl)amino]phenyl}-S-methyl-N-(phenylsulphonyl)sulphimide] | 110 | excellent antiproliferative activity | 570 | 37 | 21 |  | 110 | 
C[C@@H](Nc1nc(Nc2ccc(S(C)=NS(=O)(=O)c3ccc(OC(F)(F)F)cc3)cc2)ncc1Br)C(C)(C)O (mixture of isomers) [Example 16, (RS)—S-{4-[(5-Bromo-4-{[(R)-2-hydroxy-1,2-dimethylpropyl]-amino}pyrimidin-2-yl)amino]phenyl}-S-methyl-N-{[4-(trifluoromethoxy)phenyl]-sulphonyl}sulphimide] | 170 | excellent antiproliferative activity | 1800 | 150 | 72 |  | 260 | 
